Values after ≈ are worked out from the molar mass of the structure shown.
What was measured:
Hep G2 = test: MTT cytotoxicity test, Hep G2; type: cell-based, human; details: liver cancer cell line, 72 hours
Method: (§1) The bioactivities of the 25 new withanolide compounds of the present invention are further studied. The bioactivities are measured by examining cytotoxicity tests with 5 human cancer cell lines, including MCF-7 and MDA-MB-231 (which are the breast cancer cell lines), Hep G2 and Hep 3B (which are the liver cancer cell line), and A549 (which is lung cancer cell line). In addition, a normal human lung cell line (MRC-5) is served as the control group. All human cancer cell lines come from the American Type Culture Collection. The respective cell lines are cultured in RPMI-1640 medium with 10% (v/v) fetal calf serum, 100 U/ml penicillin and 100 µg/ml streptomycin, and incubated at 37° C. in 5% CO2 atmosphere.
(§2) In the present invention, the cytotoxicity tests are performed with MTT (3-(4,5-dimethyl-thiazol-2-yl)-2,5-diphenyl tetrazolium bromide) method. The five cancer cell lines and the normal cell line (MRC-5) are firstly incubated in a 96-well culture dish with concentrations of 5,000˜10,000 cells/well. In Day 2, the respective incubated cells are added with the withanolide compounds of the present invention and Doxorubicin and are incubated for additional 72 hours. Afterwards, the incubated cells are examined with the MTT method including steps of dissolving the incubated cells in DMSO, and determining the absorbance of each cell line to each compound by a microplate reader in 550 nm to evaluate the cytotoxicity of each compound to each cell line. […] The IC50 represents the concentration of the compound that is required for 50% inhibition of the cell growth, and Doxorubicin serves as the positive control group.

Hep 3B = test: MTT cytotoxicity test, Hep 3B; type: cell-based, human; details: liver cancer cell line, 72 hours
Method: as §1, §2

MCF-7 = test: MTT cytotoxicity test, MCF-7; type: cell-based, human; details: breast cancer cell line, 72 hours
Method: as §1, §2

A-549 = test: MTT cytotoxicity test, A-549; type: cell-based, human; details: lung cancer cell line, 72 hours
Method: as §1, §2

MDA-MB-231 = test: MTT cytotoxicity test, MDA-MB-231; type: cell-based, human; details: breast cancer cell line, 72 hours
Method: as §1, §2

MRC-5 = test: MTT cytotoxicity test, normal lung cell line MRC-5; type: cell-based; details: normal human lung cell line, 72 hours
Method: as §1, §2

SMILES | IC50 Hep G2 (Hep G2) [µg/mL] | IC50 Hep 3B (Hep 3B) [µg/mL] | IC50 MCF-7 (MCF-7) [µg/mL] | IC50 A-549 (A-549) [µg/mL] | IC50 MDA-MB-231 (MDA-MB-231) [µg/mL] | IC50 MRC-5 (MRC-5) [µg/mL]
CC1=C(C)C(=O)O[C@@H]([C@@H](C)[C@@]2(C)C3=C(C[C@H]2O)[C@@H]2C[C@H]4O[C@]45[C@@H](O)C(O)CC(=O)[C@]5(C)[C@H]2CC3)C1 (stereo partly drawn) [Compound 3, Tubocapsenolide C] | 15.93 (≈ 32.7 µM) | >20 | >20 | 7.06 (≈ 14.5 µM) | >20 | 
CCCCOC1CC(=O)[C@]2(C)[C@H]3CCC4=C(C[C@@H](O)[C@@]4(C)[C@H](C)[C@H]4CC(C)=C(C)C(=O)O4)[C@@H]3C[C@H]3O[C@]32[C@H]1O (stereo partly drawn) [Compound 5, Tubocapsenolide E] | 12.31 (≈ 22.7 µM) | 13.20 (≈ 24.3 µM) | >20 | 15.94 (≈ 29.4 µM) | 17.50 (≈ 32.2 µM) | 
CC1=C(C)C(=O)O[C@@H]([C@@H](C)[C@@]2(C)C3=C(C[C@H]2O)[C@@H]2C[C@H](O)[C@]4(O)[C@@H](O)C=CC(=O)[C@]4(C)[C@H]2CC3)C1 [Compound 6, Tubocapsenolide F] | >20 | 15.07 (≈ 31 µM) | 14.71 (≈ 30.2 µM) | 6.04 (≈ 12.4 µM) | 8.41 (≈ 17.3 µM) | 
CC1=C(C)C(=O)O[C@@H]([C@@H](C)[C@@]2(C)C3=C(C[C@H]2O)[C@@H]2C[C@H](Cl)[C@]4(O)[C@@H](O)C=CC(=O)[C@]4(C)[C@H]2CC3)C1 [Compound 7, Tubocapsenolide G] | 19.12 (≈ 37.9 µM) | >20 | >20 | 19.94 (≈ 39.5 µM) | >20 | 
CC1=C(C)C(=O)O[C@@H]([C@@H](C)[C@@]23O[C@@H]2C[C@H]2[C@@H]4C[C@H]5O[C@]56[C@@H](O)C=CC(=O)[C@]6(C)[C@H]4CC[C@@]23C)C1 [Compound 8, Tubocapsanolide A] | 0.86 (≈ 1.84 µM) | 0.42 (≈ 0.896 µM) | 1.47 (≈ 3.14 µM) | 0.47 (≈ 1 µM) | 0.22 (≈ 0.469 µM) | 0.73 (≈ 1.56 µM)
CC1=C(C)C(=O)O[C@@H]([C@](C)(O)[C@@]23O[C@@H]2C[C@H]2[C@@H]4C[C@H]5O[C@]56[C@@H](O)C=CC(=O)[C@]6(C)[C@H]4CC[C@@]23C)C1 [Compound 9, 20-Hydroxytubocapsanolide A] | 0.73 (≈ 1.51 µM) | 0.99 (≈ 2.04 µM) | 1.77 (≈ 3.65 µM) | 1.42 (≈ 2.93 µM) | 0.99 (≈ 2.04 µM) | 1.36 (≈ 2.81 µM)
CC1=C(C)[C@H](O)[C@H]([C@@H](C)[C@@]23O[C@@H]2C[C@H]2[C@@H]4C[C@H]5O[C@]56[C@@H](O)C=CC(=O)[C@]6(C)[C@H]4CC[C@@]23C)OC1=O [Compound 10, 23-Hydroxytubocapsanolide A] | 0.44 (≈ 0.908 µM) | 0.49 (≈ 1.01 µM) | 2.05 (≈ 4.23 µM) | 0.79 (≈ 1.63 µM) | 1.19 (≈ 2.46 µM) | 0.90 (≈ 1.86 µM)
CC1=C(C)C(=O)O[C@@H]([C@@H](C)[C@@]2(O)CC[C@H]3[C@@H]4C[C@H](O)[C@]5(O)[C@@H](O)C=CC(=O)[C@]5(C)[C@H]4CC[C@@]32C)C1 [Compound 13, Tubocapsanolide D] | >20 | 7.19 (≈ 14.7 µM) | >20 | 8.01 (≈ 16.4 µM) | 13.49 (≈ 27.6 µM) | 
CC1=C(C)C(=O)O[C@@H]([C@@H](C)[C@@]2(O)CC[C@H]3[C@@H]4C[C@H]5O[C@]56[C@@H](O)C=CC(=O)[C@]6(C)[C@H]4CC[C@@]32C)C1 [Compound 14, Tubocapsanolide F] | 0.64 (≈ 1.36 µM) | 0.80 (≈ 1.7 µM) | 1.98 (≈ 4.21 µM) | 0.88 (≈ 1.87 µM) | 0.99 (≈ 2.1 µM) | 0.81 (≈ 1.72 µM)
COC1CC(=O)[C@]2(C)[C@H]3CC[C@@]4(C)[C@@H](CC[C@]4(O)[C@H](C)[C@H]4CC(C)=C(C)C(=O)O4)[C@@H]3C[C@H]3O[C@]32[C@H]1O (stereo partly drawn) [Compound 15, Tubocapsanolide G] | 17.55 (≈ 34.9 µM) | >20 | >20 | >20 | >20 | 
COC1CC(=O)[C@]2(C)[C@H]3CC[C@]4(C)[C@@H]([C@@](C)(O)[C@H]5CC(C)=C(C)C(=O)O5)CC[C@H]4[C@@H]3C[C@H]3O[C@]32[C@H]1O (stereo partly drawn) [Compound 16, iso-Tubocapsanolide G] | 5.99 (≈ 11.9 µM) | 7.63 (≈ 15.2 µM) | >20 | 4.73 (≈ 9.41 µM) | 8.18 (≈ 16.3 µM) | 
COC1CC(=O)[C@]2(C)[C@H]3CC[C@@]4(C)[C@@H](CC[C@]4(O)[C@@](C)(O)[C@H]4CC(C)=C(C)C(=O)O4)[C@@H]3C[C@H]3O[C@]32[C@H]1O (stereo partly drawn) [Compound 17, 20-Hydroxytubocapsanolide G] | 2.51 (≈ 4.84 µM) | 12.30 (≈ 23.7 µM) | 17.25 (≈ 33.3 µM) | 2.67 (≈ 5.15 µM) | 4.44 (≈ 8.56 µM) | 7.20 (≈ 13.9 µM)
C[C@@]12CC([C@@]3(O)[C@H](O)C[C@H]4[C@@H]5C[C@H]6O[C@]67[C@@H](O)C=CC(=O)[C@]7(C)[C@H]5CC[C@@]43C)[C@@H](C1)OC(=O)[C@]2(C)O (stereo partly drawn) [Compound 21, Anomanolide C] | 4.41 (≈ 8.77 µM) | 1.85 (≈ 3.68 µM) | 8.01 (≈ 15.9 µM) | 2.80 (≈ 5.57 µM) | 1.58 (≈ 3.14 µM) | 
C[C@@]12CC([C@@]3(O)[C@H](O)C[C@H]4[C@@H]5C[C@H](Cl)[C@]6(O)[C@@H](O)C=CC(=O)[C@]6(C)[C@H]5CC[C@@]43C)[C@@H](C1)OC(=O)[C@]2(C)O (stereo partly drawn) [Compound 22, Anomanolide D] | >20 | 19.03 (≈ 35.3 µM) | >20 | >20 | >20 | 
C[C@@]12CC([C@@]3(O)[C@H](O)C[C@H]4[C@@H]5C[C@H](O)[C@]6(O)CC=CC(=O)[C@]6(C)[C@H]5CC[C@@]43C)[C@@H](C1)OC(=O)[C@]2(C)O (stereo partly drawn) [Compound 23, Anomanolide E] | >20 | >20 | >20 | >20 | >20 | 
C[C@@]12CC([C@@]3(O)[C@H](O)C[C@H]4[C@@H]5CC[C@]6(O)[C@@H](O)C=CC(=O)[C@]6(C)[C@H]5CC[C@@]43C)[C@@H](C1)OC(=O)[C@]2(C)O (stereo partly drawn) [Compound 24, Anomanolide F] | >20 | >20 | >20 | >20 | >20 | 
C[C@]1(O)C[C@H]2OC(=O)[C@]1(C)C[C@H]2[C@@]1(O)[C@H](O)C[C@H]2[C@@H]3C[C@H](Cl)[C@]4(O)[C@@H](O)C=CC(=O)[C@]4(C)[C@H]3CC[C@@]21C [Compound 25, Tubonolide A] | 5.09 (≈ 9.44 µM) | 6.54 (≈ 12.1 µM) | 12.03 (≈ 22.3 µM) | 5.91 (≈ 11 µM) | >20 | 

Reference: patent US20090088412A1, “COMPOSITION FOR TREATING CANCER CELLS AND PREPARATION METHOD THEREOF” (KAOHSIUNG MEDICAL UNIVERSITY, priority 2007, published 2009)
